Patent US11155539B2, “4-pyridinylmethyl-morpholine derivatives and the use thereof as medicament” (Boehringer Ingelheim International GmbH, priority 2018, dated 2021)

Assays:
NMDA NR1/NR2B receptor = target: T1, NMDA NR1/NR2B receptor (Homo sapiens, UniProt Q13224); assay: In vitro NMDA NR1/NR2B cell assay (FLIPR, intracellular calcium induced by glycine/glutamate); format: cell-based; details: see Table 2
T1 construct: host or cells: HEK293, tetracycline-inducible expression
Description: A human HEK293 cell line with tetracyclin-inducible expression of NMDA NR1/NR2B receptor was used as a test system for compound efficacy and potency. The cell line was purchased from ChanTest, Catalog #CT6121. Compound activity was determined by measuring the effect of compounds on intracellular calcium concentration induced by glycine/glutamate agonism in a FLIPRtetra system (Molecular Devices).
The cells were obtained as frozen cells in cryo-vials and stored until use at −150° C. Cells were grown in culture medium (DMEM/F12, 10% FBS, 5 μg/mL Blasticidin, 150 μg/mL Zeozin, 500 μg/mL Geneticin). […] For sub-culturing the cells were detached from flasks by Versene. For the assay, cells were detached, washed twice with induction medium (DMEM/F12 without glutamine, 10% FBS, 2 μg/mL Tetracycline, 2 mM Ketamine) and seeded to 384 well pure coat amine plates (Becton Dickinson, 50000 cells per well in 50 μl) 48 h prior to assay in induction medium.
The test compounds were dissolved in 100% DMSO at a concentration of 10 mM and in a first step diluted in DMSO to a concentration of 5 mM, followed by serial dilution steps in 100% DMSO. Dilution factor and number of dilution steps may vary according to needs. Typically 8 different concentrations by 1:5 dilutions were prepared in duplicate, further intermediate dilutions (1:37.5) of the substances were carried out with aqueous assay buffer (137 mM NaCl, 4 mM KCl, 1.8 mM CaCl2, 10 mM HEPES, 10 mM Glucose, pH 7.4) resulting in a compound concentration 3 times above the final test concentration and DMSO at 2.7% resulting in 0.9% final DMSO concentration in the assay.
At the assay day cells were washed 3× with assay buffer (as described above), 10 μL buffer remained in the wells after washing. 10 μL Ca kit loading buffer (AAT Bioquest; prepared from the kit containing the following components: Component A: Fluo-8 NW dissolved in 200 μL DMSO and 20 μl of this solution are mixed with 10 ml buffer prepared out of component B and C, Component B: 10× Pluronic® F127 Plus diluted 1:10 in component C, Component C: HHBS (Hanks with 20 mM Hepes) was added to the cells and the plates were incubated with lid for 60 minutes at room temperature. 20 μl assay buffer containing 60 μM glycine (20 μM final) and 3 μM glutamate (1 μM final) was added to column 1-23, column 24 got assay buffer without glycine/glutamate to serve as negative unstimulated control. Fluorescence (indicating the calcium influx as a result of the NR1/NR2B ion channel activation) was read on the FLIPRtetra device for 60 seconds to monitor the glutamate induced effects. After 2 minutes 20 μL of compound dilution prepared as described above or controls (row 1-22) in assay buffer were carefully added to the wells. […] The average of 2 measurements at 5 minutes and […] 10 seconds after compound addition is calculated and further used for IC50 calculations. Each assay microtiter compound dilution plate contained wells (in column 23 or 24) with DMSO controls instead of compound as controls for glycine/glutamate induced fluorescence (high controls) and wells with 1 μM of a reference NR2B NAM as low controls (Compound 22; reference: Layton, Mark E et al, ACS Chemical Neuroscience 2011, 2(7), 352-362).
The output file of the reader contains the well number and measured average fluorescence units. For data evaluation and calculation, the measurement of the low control was set as 0% control and the measurement of the high control was set as 100% control. The IC50 values were calculated using the standard 4 parameter logistic regression formula. Calculation: [y=(a−d)/(1+(x/c)^b)+d], a=low value, d=high value; x=conc M; c=IC50 M; b=slope.

Nav1.6 [1] = target: T2, Nav1.6 (Homo sapiens, UniProt Q9UQD0); details: reported in WO2015/130905; cited from earlier work
T2 sequence (Q9UQD0 whole entry): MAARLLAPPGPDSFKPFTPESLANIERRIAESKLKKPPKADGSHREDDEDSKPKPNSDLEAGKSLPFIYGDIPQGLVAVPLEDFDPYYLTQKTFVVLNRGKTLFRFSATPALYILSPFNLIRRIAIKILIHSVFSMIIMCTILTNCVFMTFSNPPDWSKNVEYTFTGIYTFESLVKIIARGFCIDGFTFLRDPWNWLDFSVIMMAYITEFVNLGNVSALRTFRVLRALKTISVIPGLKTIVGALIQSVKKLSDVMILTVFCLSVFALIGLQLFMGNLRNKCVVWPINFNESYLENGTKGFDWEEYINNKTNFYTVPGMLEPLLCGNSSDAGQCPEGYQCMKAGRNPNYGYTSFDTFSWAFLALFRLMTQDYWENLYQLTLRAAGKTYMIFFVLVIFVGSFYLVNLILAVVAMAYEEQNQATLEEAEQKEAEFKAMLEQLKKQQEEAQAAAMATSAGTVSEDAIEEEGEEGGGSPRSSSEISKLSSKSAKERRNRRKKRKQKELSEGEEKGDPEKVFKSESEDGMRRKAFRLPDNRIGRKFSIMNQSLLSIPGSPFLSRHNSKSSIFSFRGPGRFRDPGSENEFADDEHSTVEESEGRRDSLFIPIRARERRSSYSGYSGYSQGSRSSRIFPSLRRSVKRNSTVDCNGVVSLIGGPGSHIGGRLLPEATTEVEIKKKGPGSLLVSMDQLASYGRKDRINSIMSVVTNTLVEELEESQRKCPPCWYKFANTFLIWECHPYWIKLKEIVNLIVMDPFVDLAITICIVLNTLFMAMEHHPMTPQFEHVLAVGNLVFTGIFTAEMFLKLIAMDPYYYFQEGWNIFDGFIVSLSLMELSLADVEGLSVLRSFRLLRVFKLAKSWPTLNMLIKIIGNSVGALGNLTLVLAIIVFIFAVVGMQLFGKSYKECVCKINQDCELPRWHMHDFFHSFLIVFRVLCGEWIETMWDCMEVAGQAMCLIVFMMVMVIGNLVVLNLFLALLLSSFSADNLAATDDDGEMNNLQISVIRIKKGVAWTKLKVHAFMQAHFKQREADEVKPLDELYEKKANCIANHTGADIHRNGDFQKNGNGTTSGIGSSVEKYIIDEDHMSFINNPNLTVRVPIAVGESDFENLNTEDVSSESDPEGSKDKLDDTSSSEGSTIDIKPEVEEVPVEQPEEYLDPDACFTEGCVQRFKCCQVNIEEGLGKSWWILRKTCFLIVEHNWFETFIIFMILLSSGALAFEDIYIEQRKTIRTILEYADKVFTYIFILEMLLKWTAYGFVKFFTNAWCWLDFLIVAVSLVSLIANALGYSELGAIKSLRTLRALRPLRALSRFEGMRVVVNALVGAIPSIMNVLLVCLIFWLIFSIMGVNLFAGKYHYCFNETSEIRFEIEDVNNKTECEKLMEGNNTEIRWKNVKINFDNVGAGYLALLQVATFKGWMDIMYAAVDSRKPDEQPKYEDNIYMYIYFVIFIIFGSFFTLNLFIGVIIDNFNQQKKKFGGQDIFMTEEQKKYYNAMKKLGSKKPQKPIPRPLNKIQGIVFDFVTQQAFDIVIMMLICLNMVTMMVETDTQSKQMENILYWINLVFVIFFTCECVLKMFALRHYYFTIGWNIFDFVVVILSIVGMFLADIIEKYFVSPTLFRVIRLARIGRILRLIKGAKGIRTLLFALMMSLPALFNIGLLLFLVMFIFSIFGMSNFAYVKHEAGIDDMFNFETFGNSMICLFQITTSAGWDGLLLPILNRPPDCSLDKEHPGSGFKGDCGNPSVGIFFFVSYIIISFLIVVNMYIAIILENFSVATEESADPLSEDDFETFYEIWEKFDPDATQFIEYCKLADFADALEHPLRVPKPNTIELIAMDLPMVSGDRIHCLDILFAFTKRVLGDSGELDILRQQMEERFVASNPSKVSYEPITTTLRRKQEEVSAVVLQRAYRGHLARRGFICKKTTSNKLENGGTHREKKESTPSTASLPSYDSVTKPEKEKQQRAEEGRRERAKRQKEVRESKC

Nav1.6 [2] = target: T2, Nav1.6; assay: Nav 1.6 inhibition, IonWorks Quattro electrophysiology; format: cell-based
Description: Determination of Nav 1.6.Inhibition
IonWorks Quattro electrophysiological platform
The compounds were prepared in DMSO at 300× the final assay concentrations of 1 and 5 μM.
The 300×DMSO stock solutions were transferred into assay plates where 2 μl per well of each 300× stock solution were placed. All assay plates were stored at −80° C. until the day of assay.
On the day of the assay, the appropriate assay plate was thawed at room temperature, centrifuged, and 198 μl of external recording solution was added and mixed thoroughly. This provided a 1:100 dilution. A further 1:3 dilution occurred upon addition to the cells in the IonWorks Quattro electrophysiological platform, giving a 1:300 dilution in total. On each assay plate, at least 8 wells were reserved for vehicle control (0.3% DMSO) and at least 8 wells for each positive control specific to the cell line tested. The positive controls were tested at a maximal blocking and an approximate IC50 concentration. As positive control Lidocaine at concentrations of 30 and 1000 μM was used.
The solutions for recording Nav1.6 currents were as follows:
Amphotericin B was used to obtain electrical access to the cell interior at a final concentration of 200 μg/ml in internal recording solution.
State-dependent inhibition: Sodium channels when held at depolarized potential or long test pulse, the channels open and inactivate and then stay inactivated until the membrane potential is stepped back to hyperpolarized potentials, when the inactivated channels recover from inactivation into closed state.
Cells were held at −120 mV. In order to completely inactivate the sodium channels (pulse 1), the cells were pulsed to +0 mV for 2500 ms and stepped back to −120 mV for 10 ms (to completely recover from inactivation, however channels that had drugs bound to them will not recover from inactivation) before stepping to +0 mV for 20 ms (pulse 2).
Both the positive and vehicle control data associated with each cell line assayed are shown below as an example. The mean is shown for each positive and negative control as solid symbol with the total number of individual well replicates given next to the solid symbol. In addition, the individual data of each well are shown on the graph as open symbols so that the variation about the mean value can be readily assessed.
Shown below are the assay controls for the Nav1.6 IonWorks Quattro assay.
Tables 3 and 4 show the normalized percentage inhibition of Nav1.6 channel. […] (see also the figure Assay Control Results above).

T1 sequence (Q13224 27-1484, other chains not shown): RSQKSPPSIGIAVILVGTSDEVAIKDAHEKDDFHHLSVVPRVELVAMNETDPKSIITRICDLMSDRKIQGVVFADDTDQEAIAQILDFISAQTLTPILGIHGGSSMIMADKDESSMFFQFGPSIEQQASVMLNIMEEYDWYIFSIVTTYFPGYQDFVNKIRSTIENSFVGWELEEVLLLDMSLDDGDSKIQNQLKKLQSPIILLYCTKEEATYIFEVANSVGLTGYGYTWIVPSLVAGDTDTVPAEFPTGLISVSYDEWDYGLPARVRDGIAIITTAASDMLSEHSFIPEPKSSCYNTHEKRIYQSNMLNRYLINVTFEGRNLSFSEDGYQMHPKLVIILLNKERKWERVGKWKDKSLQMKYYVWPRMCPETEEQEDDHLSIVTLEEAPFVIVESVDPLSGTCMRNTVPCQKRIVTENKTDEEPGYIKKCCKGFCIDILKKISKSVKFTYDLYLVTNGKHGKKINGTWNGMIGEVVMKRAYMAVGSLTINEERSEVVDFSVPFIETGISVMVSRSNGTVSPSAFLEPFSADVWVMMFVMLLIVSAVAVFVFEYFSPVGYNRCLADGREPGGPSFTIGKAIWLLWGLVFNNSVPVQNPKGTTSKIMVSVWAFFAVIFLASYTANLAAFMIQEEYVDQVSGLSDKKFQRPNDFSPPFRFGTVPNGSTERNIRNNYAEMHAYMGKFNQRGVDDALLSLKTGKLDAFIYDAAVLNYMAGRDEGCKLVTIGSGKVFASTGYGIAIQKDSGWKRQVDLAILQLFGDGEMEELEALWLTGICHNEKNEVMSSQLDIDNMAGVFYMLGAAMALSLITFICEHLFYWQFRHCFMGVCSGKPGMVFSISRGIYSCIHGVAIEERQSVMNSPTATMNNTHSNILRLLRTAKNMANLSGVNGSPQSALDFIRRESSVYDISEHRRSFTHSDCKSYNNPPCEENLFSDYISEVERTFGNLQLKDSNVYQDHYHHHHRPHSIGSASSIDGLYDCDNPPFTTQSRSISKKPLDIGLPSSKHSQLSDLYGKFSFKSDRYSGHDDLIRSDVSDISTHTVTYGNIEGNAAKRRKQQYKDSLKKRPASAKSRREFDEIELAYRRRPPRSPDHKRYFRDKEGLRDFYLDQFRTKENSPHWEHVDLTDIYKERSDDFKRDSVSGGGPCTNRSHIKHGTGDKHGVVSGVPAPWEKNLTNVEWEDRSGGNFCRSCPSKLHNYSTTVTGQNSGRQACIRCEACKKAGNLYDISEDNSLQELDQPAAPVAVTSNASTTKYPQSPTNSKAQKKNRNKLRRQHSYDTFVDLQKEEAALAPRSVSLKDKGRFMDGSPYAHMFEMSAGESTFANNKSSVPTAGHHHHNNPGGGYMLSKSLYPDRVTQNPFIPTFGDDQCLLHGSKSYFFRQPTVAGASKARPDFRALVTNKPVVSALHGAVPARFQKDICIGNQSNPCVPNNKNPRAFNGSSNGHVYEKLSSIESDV

## O=C(C1CN(Cc2cccc(Oc3ccccc3)c2)CCO1)N1CCOCC1 (stereo not shown) [Example 106 of WO2015/130905, reference compound]
NMDA NR1/NR2B receptor
  activity on the NR1-NR2B ion channel (in words): do not show any activity
Nav1.6 [1]
  Nav 1.6 blockage: > 5 µM
Nav1.6 [2]; at 5 μM
  significant inhibition of the Nav 1.6 channel (in words): not showing any significant inhibition
Nav1.6 [2]; at 1 and 5 μM
  significant inhibition of the Nav 1.6 channel (in words): do not show any significant inhibition
